Experiments:
[1] = tested on: Plasmodium yoelii NS (chloroquine-resistant strain); test: Oral administration test of polysaccharide fraction in combination with antimalarial agent in rodent malaria parasite (chloroquine-resistant strain) infection model; type: in vivo, Plasmodium yoelii NS in ICR mice; conditions: 2×10^4 infected erythrocytes; AN 3 mg/kg/day oral four times; SCE-4 600 mg/kg/day oral from 7 days before infection; versus control group (Dunnett's test)
Procedure: A procedure was performed in the same manner as in Example 4, except that the number of P. yoelii NS-infected erythrocytes intravenously injected to the tail vein was changed from 2×10^6 cells to 2×10^4 cells.
SCE-4 and AN were orally administered to ICR mice each day in a dose of 500 μL/mouse using a feeding needle. A dosage of SCE-4 was 600 mg/kg/day, and AN was dissolved in a 10% dimethylsulfoxide (DMSO) aqueous solution containing 0.5% Tween 80 and administered in a dosage of 3 mg/kg/day. The administration of SCE-4 was started 7 days before parasite infection and continued even after the plasmodium infection. The administration of AN was started 2 hours after the parasite infection and continued until Day 3 after the plasmodium infection (four times in total). In addition, SCE-4 was administered 3 hours or more after the administration of AN.
To a control group, water and a 10% DMSO aqueous solution containing 0.5% Tween 80 were orally administered, and to AN3 groups, water and a 10% DMSO aqueous solution of AN containing 0.5% Tween 80 were orally administered, and to SCE-4+AN3 groups, an SCE-4 aqueous solution and a 10% DMSO aqueous solution of AN containing 0.5% Tween 80 were orally administered.
Calculation was performed in the same manner as in Example 3.

[2] = tested on: IL-6 production in mouse Peyer's patch cells; test: IL-6 production induction test in Peyer's patch cell culture (ELISA); type: cell-based, C3H/HeJ mouse; conditions: Example 2, FIG. 4; sample untreated, versus control
Procedure: To a 25 mM acetate buffer (pH 4.5, 1 mg/mL) solution of the α-glucan fraction (1.5 mg) or the heteroglycan fraction (1.5 mg) were added exo-α-L-arabinofuranosidase (20 μL), exo-β-D-(1→3)-galactanase (20 μL), and endo-β-D-(1→4)-galactanase (5 μL), followed by enzyme reaction under conditions of 37° C. for 2 days. The obtained digest was heat-treated for 30 seconds in a boiling water bath to deactivate the enzyme. To a half of this enzyme reaction liquid (shown as “1,3/1,4-galactanase” in FIG. 4) was further added dextranase (0.25 units), followed by incubation for 2 days at 37° C., and subsequently, the enzyme was deactivated under the same conditions as the above to obtain an enzyme reaction liquid (shown as “dextranase” in FIG. 4). These reaction liquids were preserved at −20° C. until use. Preparation and culture of mouse Peyer's patch cells were performed in the same manner as in Test Example 1. An anti-mouse IL-6 primary antibody diluted to 1 μg/mL with a 50 mM carbonate-bicarbonate buffer (pH 9.6) (100 μL/well) was dispensed into an ELISA plate (Immuno-Maxisorp, Nunc) and incubated at 4° C. overnight. […] The developed yellow color was measured using a microplate reader (Multiskan JX, Thermo Electron Corp.) (measurement wavelength; 405 nm, blank wavelength; 492 nm).

Row | Molecule | infection rate of erythrocytes (Parasitemia), Day 4 and Day 5 [1] | amount of IL-6 production [2]
1 | C[C@H]1[C@H](OC(=O)CCC(=O)O)O[C@@H]2O[C@@]3(C)CC[C@H]4[C@H](C)CC[C@@H]1[C@@]24OO3 [AN, artesunate] | the infection rate significantly decreased on Day 4 and Day 5 as compared with the control group | –
2 | dextran | – | no change in the amount of IL-6 production was observed

From US9737558B2, “Peyer's patch activator” (priority 2012, dated 2017)
